From PubChem BioAssay (NCI)
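GI50 is the concentration that inhibits growth by half. The concentration for full growth arrest is given as TGI.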

Experiments:
Experiment in all cases: DTP human tumour cell line panel, 384-well format
[1] = test system: OVCAR-3 ovarian
[2] = test system: HL-60(TB) leukemia
[3] = test system: DU-145 prostate
[4] = test system: U251 glioblastoma
[5] = test system: CAKI-1 renal
[6] = test system: NCI/ADR-RES ovarian
[7] = test system: EKVX NSCLC
[8] = test system: MCF7 breast
[9] = test system: KM12 colon
[10] = test system: UACC-257 melanoma
[11] = test system: NCI-H226 lung
[12] = test system: LOX IMVI melanoma
[13] = test system: T-47D breast
[14] = test system: RXF 393 renal
[15] = test system: HOP-92 NSCLC
[16] = test system: SN12C renal
[17] = test system: SF-295 CNS
[18] = test system: SW-620 colon
[19] = test system: OVCAR-8 ovarian
[20] = test system: IGROV1 ovarian
[21] = test system: MDA-MB-468 breast
[22] = test system: MDA-MB-231 breast
[23] = test system: M14 melanoma
[24] = test system: HS 578T breast
[25] = test system: OVCAR-4 ovarian
[26] = test system: HOP-62 NSCLC
[27] = test system: COLO 205 colon
[28] = test system: CCRF-CEM leukemia
[29] = test system: NCI-H322M lung
[30] = test system: SK-MEL-28 melanoma

Cc1ccncc1N1CCN(c2ccnc(Cl)c2)C1=O
TGI [1]: > 100 µM | GI50 [2]: > 100 µM | TGI [2]: > 100 µM | GI50 [3]: > 100 µM | TGI [3]: > 100 µM | GI50 [4]: > 100 µM | TGI [4]: > 100 µM | GI50 [5]: > 100 µM | TGI [5]: > 100 µM | GI50 [6]: > 100 µM | TGI [6]: > 100 µM | GI50 [7]: > 100 µM | TGI [7]: > 100 µM | GI50 [8]: > 100 µM | TGI [8]: > 100 µM | GI50 [9]: > 100 µM | TGI [9]: > 100 µM | GI50 [10]: > 100 µM | TGI [10]: > 100 µM | GI50 [11]: > 100 µM | TGI [11]: > 100 µM | GI50 [12]: > 100 µM | TGI [12]: > 100 µM | GI50 [13]: > 100 µM | TGI [13]: > 100 µM | GI50 [14]: > 100 µM | TGI [14]: > 100 µM | GI50 [15]: > 100 µM | TGI [15]: > 100 µM | GI50 [16]: > 100 µM | TGI [16]: > 100 µM | GI50 [17]: > 100 µM | TGI [17]: > 100 µM | GI50 [18]: > 100 µM | TGI [18]: > 100 µM | GI50 [19]: > 100 µM | TGI [19]: > 100 µM | GI50 [20]: > 100 µM | TGI [20]: > 100 µM | GI50 [21]: > 100 µM | TGI [21]: > 100 µM | GI50 [22]: > 100 µM | TGI [22]: > 100 µM | GI50 [23]: > 100 µM | TGI [23]: > 100 µM | GI50 [24]: > 100 µM | TGI [24]: > 100 µM | GI50 [25]: > 100 µM | TGI [25]: > 100 µM | GI50 [26]: > 100 µM | TGI [26]: > 100 µM | GI50 [27]: > 100 µM | TGI [27]: > 100 µM | GI50 [28]: > 100 µM | TGI [28]: > 100 µM | GI50 [29]: > 100 µM | TGI [29]: > 100 µM | GI50 [30]: > 100 µM | TGI [30]: > 100 µM
